Experimental data reported in article PMC6284057, “Combined Antibacterial Effects of Goat Cathelicidins With Different Mechanisms of Action” (Frontiers in Microbiology, 2018).
≈ marks a conversion by molar mass, not a printed value. Read-outs that look alike come from different tables or passages of the source. Positions of bridges follow the written chain, without caps; N, C: chain ends. Non-standard residues stand in square brackets, D forms with d. Residues, ends and D or L forms follow the SMILES beside them. No end group written: not given here. *: point of attachment. X1 = CC[C@H](C)CCCCC(=O)*; Dab = NCC[C@H](N)C(=O)O

What was measured:
[1] = tested on: E. coli XDR CI 1057; conditions: MH broth, 0.9% NaCl
Method: Resistance induction experiments were performed using the previously described method ([Chernysh et al., 2015]) with some modifications. Briefly, on day 1, the overnight culture of wild-type bacteria was diluted with the 2× MH broth containing 1.8% NaCl so that to reach a final cell concentration of 10^6 CFU/ml. 50 μl aliquots of the obtained bacterial suspension were added to 50 μl of the peptide solutions serially diluted with 0.1% water solution of BSA in 96-well microplates (Eppendorf #0030730011). After incubation at 37°C and 900 rpm for 22 ± 2 h, MICs were determined as described above. For each subsequent daily transfer, 5 μl of the inoculum taken from the first well with a sub-inhibitory drug concentration were diluted with 1 ml of the fresh 2× MH broth supplemented with 1.8% NaCl. […] Control serial passages in the absence of the agent were also performed.

[2] = tested on: A. baumannii (XDR CI 2675); experiment: microbe, parasite or virus in culture; type: cell-based, Acinetobacter baumannii; conditions: read-out: Minimum inhibitory concentration
Method: (§1) Antimicrobial assay was performed as described previously ([Panteleev et al., 2017b]). Briefly, mid-log phase bacterial test cultures were diluted with the 2× Mueller-Hinton broth (MH, Sigma) supplemented with 1.8% NaCl or without it so that to reach a final cell concentration of 10^6 CFU/ml. 50 μl aliquots of the obtained bacterial suspension were added to 50 μl of the peptide solutions serially diluted with 0.1% water solution of bovine serum albumin (BSA) in 96-well flat-bottom polystyrene microplates (Eppendorf #0030730011). After incubation at 37°C and 900 rpm for 24 h the minimum inhibitory concentrations (MIC) were determined as the lowest peptide concentrations that prevented growth of a test microorganism observed as visible turbidity. The results were expressed as the median values determined on the basis of at least three independent experiments performed in triplicate.

[3] = tested on: E. cloacae (XDR CI 4172); experiment: microbe, parasite or virus in culture; type: cell-based, Enterobacter cloacae; conditions: read-out: Minimum inhibitory concentration
Method: as §1

[4] = tested on: P. aeruginosa (XDR CI 1049); experiment: microbe, parasite or virus in culture; type: cell-based, Pseudomonas aeruginosa; conditions: Table S2, XDR clinical isolate; NaCl content of medium not stated; read-out: Minimum inhibitory concentration
Method: as §1

[5] = tested on: K. pneumoniae (XDR CI 1056); experiment: microbe, parasite or virus in culture; type: cell-based, Klebsiella pneumoniae; conditions: Table S2, XDR clinical isolate; NaCl content of medium not stated; read-out: Minimum inhibitory concentration
Method: as §1

[6] = tested on: E. coli XDR CI 1057 (26 days with mini-ChBac7.5Nα)
Method: as §1, with “After incubation at 37°C and 900 rpm for 24 h the minimum inhibitory concentrations (MIC) were determined as the lowest peptide concentrations that prevented growth of a test microorganism observed as visible turbidity.” left out
(§2) Resistance induction experiments were performed using the previously described method ([Chernysh et al., 2015]) with some modifications. Briefly, on day 1, the overnight culture of wild-type bacteria was diluted with the 2× MH broth containing 1.8% NaCl so that to reach a final cell concentration of 10^6 CFU/ml. 50 μl aliquots of the obtained bacterial suspension were added to 50 μl of the peptide solutions serially diluted with 0.1% water solution of BSA in 96-well microplates (Eppendorf #0030730011). After incubation at 37°C and 900 rpm for 22 ± 2 h, MICs were determined as described above. For each subsequent daily transfer, 5 μl of the inoculum taken from the first well with a sub-inhibitory drug concentration were diluted with 1 ml of the fresh 2× MH broth supplemented with 1.8% NaCl. […] 26 repeated passages in the presence of antimicrobial agents were made for each bacterial strain during the experiment. […] Control serial passages in the absence of the agent were also performed.

[7] = tested on: E. coli XDR CI 1057 (26 days without antimicrobial agent)
Method: as §1, with “After incubation at 37°C and 900 rpm for 24 h the minimum inhibitory concentrations (MIC) were determined as the lowest peptide concentrations that prevented growth of a test microorganism observed as visible turbidity.” left out
as §2

[8] = tested on: E. coli XDR CI 1057 (26 days with synergy combination); conditions: Table 4, strain after 26 days with synergy combination (selection in MH broth with 0.9% NaCl)
Method: as §1, with “After incubation at 37°C and 900 rpm for 24 h the minimum inhibitory concentrations (MIC) were determined as the lowest peptide concentrations that prevented growth of a test microorganism observed as visible turbidity.” left out
as §2

[9] = tested on: P. mirabilis (XDR CI 3423); experiment: microbe, parasite or virus in culture; type: cell-based, Proteus mirabilis; conditions: Table S2, XDR clinical isolate; NaCl content of medium not stated; read-out: Minimum inhibitory concentration
Method: as §1

[10] = tested on: E. coli (XDR CI 1057); experiment: microbe, parasite or virus in culture; type: cell-based, Escherichia coli
Method: as §1

[11] = tested on: E. coli ML-35p; experiment: Resistance induction experiment; type: cell-based, Escherichia coli; conditions: after 25 passages under selection; MH broth, 0.9% NaCl
Method: as §2

[12] = tested on: E. coli V102G mutant strain (SbmA); design: method as in Corbalan et al., 2013; conditions: ref Corbalan et al., 2013; cited from earlier work
[13] = tested on: P. aeruginosa PAO1; type: cell-based, Pseudomonas aeruginosa; conditions: Mueller-Hinton broth, 10^6 CFU/ml, 0.1% BSA, 37°C, 24 h, median of at least 3 experiments
Method: as §1

[14] = tested on: K. pneumoniae (CI 287); type: cell-based, Klebsiella pneumoniae; conditions: Mueller-Hinton broth, 10^6 CFU/ml, 0.1% BSA, 37°C, 24 h, median of at least 3 experiments
Method: as §1

[15] = tested on: S. aureus 209P; type: cell-based, Staphylococcus aureus; conditions: Mueller-Hinton broth, 10^6 CFU/ml, 0.1% BSA, 37°C, 24 h, median of at least 3 experiments
Method: as §1

[16] = tested on: E. coli ML-35p; type: cell-based, Escherichia coli; conditions: Mueller-Hinton broth, 10^6 CFU/ml, 0.1% BSA, 37°C, 24 h, median of at least 3 experiments
Method: as §1

[17] = tested on: E. coli C600; type: cell-based, Escherichia coli; conditions: Mueller-Hinton broth, 10^6 CFU/ml, 0.1% BSA, 37°C, 24 h, median of at least 3 experiments
Method: as §1

[18] = tested on: M. luteus B-1314; type: cell-based, Micrococcus luteus; conditions: Mueller-Hinton broth, 10^6 CFU/ml, peptide diluted in 0.1% BSA, 37°C, 24 h, median of at least 3 experiments in triplicate
Method: as §1

[19] = tested on: B. subtilis B-886; type: cell-based, Bacillus subtilis; conditions: Mueller-Hinton broth, 10^6 CFU/ml, 0.1% BSA, 37°C, 24 h, median of at least 3 experiments
Method: as §1

[20] = tested on: mammalian cell lines (HEK293T, HEF); experiment: Cytotoxicity (MTT assay); type: cell-based, human; conditions: HEK293T and HEF, 24 h incubation
Method: Hemolytic activity of the peptides was tested against the fresh suspension of human red blood cells (hRBC) using the hemoglobin release assay as described previously ([Panteleev et al., 2016]). Three experiments were performed with the hRBC from blood samples obtained from independent donors. The obtained data were represented as average means with standard deviations. The cytotoxicity of the peptides against HEK293T (transformed human embryonic kidney cells) and HEF (human embryonic fibroblasts) cell lines was studied using the colorimetric 3-(4,5-dimethylthiazol-2-yl)-2,5-diphenyltetrazolium bromide (MTT) dye reduction assay according to ([Panteleev and Ovchinnikova, 2017]). Three independent experiments were performed for each peptide. Half maximal inhibitory concentration (IC50) values were estimated as described previously ([Kuzmin et al., 2018]).

[21] = tested on: S. aureus ATCC 29213; type: cell-based, Staphylococcus aureus; conditions: Mueller-Hinton broth, 10^6 CFU/ml, 0.1% BSA, 37°C, 24 h, median of at least 3 experiments
Method: (§3) Briefly, mid-log phase bacterial test cultures were diluted with the 2× Mueller-Hinton broth (MH, Sigma) supplemented with 1.8% NaCl or without it so that to reach a final cell concentration of 10^6 CFU/ml. 50 μl aliquots of the obtained bacterial suspension were added to 50 μl of the peptide solutions serially diluted with 0.1% water solution of bovine serum albumin (BSA) in 96-well flat-bottom polystyrene microplates (Eppendorf #0030730011). […] The results were expressed as the median values determined on the basis of at least three independent experiments performed in triplicate.

[22] = tested on: mini-ChBac7.5Nα-resistant E. coli strain; conditions: peptide alone, before addition of ChMAP-28
Method: as §1, with “After incubation at 37°C and 900 rpm for 24 h the minimum inhibitory concentrations (MIC) were determined as the lowest peptide concentrations that prevented growth of a test microorganism observed as visible turbidity.” left out
as §2

[23] = tested on: E. faecalis ATCC 29212; type: cell-based, Enterococcus faecalis; conditions: Mueller-Hinton broth, 10^6 CFU/ml, 0.1% BSA, 37°C, 24 h, median of at least 3 experiments
Method: as §3

[24] = Table S2, XDR clinical isolate, NaCl content of medium not stated
[25] = 0.9% NaCl, Mueller-Hinton broth, 10^6 CFU/ml, 0.1% BSA, 37°C, 24 h, median of at least 3 experiments
[26] = Without NaCl, Mueller-Hinton broth, 10^6 CFU/ml, 0.1% BSA, 37°C, 24 h, median of at least 3 experiments

With CC[C@H](C)CCCCC(=O)N[C@@H](CCN)C(=O)N[C@H](C(=O)N[C@@H](CCN)C(=O)N[C@H]1CCNC(=O)[C@H]([C@@H](C)O)NC(=O)[C@H](CCN)NC(=O)[C@H](CCN)NC(=O)[C@H](CC(C)C)NC(=O)[C@@H](Cc2ccccc2)NC(=O)[C@H](CCN)NC1=O)[C@@H](C)O [Polymyxin B, reference compound] (X1-[Dab]T[Dab][Dab][Dab][dF]L[Dab][Dab]T; lactam 4-C (inferred); N-terminus assumed) the “increase in MIC value” ([1]; after 25 passages under selection) was 2048 fold, the “MIC value after resistance development” value ([1]; selection by polymyxin B) was over 256 µM and the MIC [2, 24] was 0.125 µM (≈ 0.15 µg/mL). The MIC [3, 24] was 4 µM (≈ 4.81 µg/mL), the MIC [4] was 2 µM (≈ 2.41 µg/mL) and the MIC [5] was 0.25 µM (≈ 0.301 µg/mL). It also gave a Minimum inhibitory concentration ([6]; Table 4, strain after 26 days with mini-ChBac7.5Nα (selection in MH broth with 0.9% NaCl)) of 0.125 µM (≈ 0.15 µg/mL), a Minimum inhibitory concentration ([7]; Table 4, strain after 26 days without antimicrobial agent (selection in MH broth with 0.9% NaCl)) of 0.125 µM (≈ 0.15 µg/mL) and a Minimum inhibitory concentration [8] of 0.06 µM. It also gave an MIC [9] of over 128 µM, a Minimum inhibitory concentration ([10]; Table 4, strain at 0 days of selection experiment (selection in MH broth with 0.9% NaCl)) of 0.125 µM (≈ 0.15 µg/mL) and a Minimum inhibitory concentration [10, 24] of 0.125 µM (≈ 0.15 µg/mL). The “increase in MIC value” [11] was 128 fold.
For “Bac7(1–16): minimal active fragment of the bovine 60-residue Pro-rich peptide Bac7 (RRIRPRPPRLPRPRPR; Bactenecin 7; UniProt P19661 131-146, looked up, fragment)”, the MIC [12] is listed as 156 µM.
“RRLRPRRPRLPRPRPR [mini-ChBac7.5Nα(1–16)]” gave a Minimum inhibitory concentration ([13]; 0.9% NaCl) of over 32 µM, a Minimum inhibitory concentration ([13]; Without NaCl) of 16 µM and an MIC [2, 25] of over 32 µM. The MIC [2, 26] was 4 µM, the Minimum inhibitory concentration ([14]; 0.9% NaCl) was over 32 µM and the Minimum inhibitory concentration ([14]; Without NaCl) was 4 µM. It also gave a Minimum inhibitory concentration ([15]; 0.9% NaCl) of over 32 µM, a Minimum inhibitory concentration ([15]; Without NaCl) of 8 µM and a Minimum inhibitory concentration ([16]; 0.9% NaCl) of 8 µM. For the same molecule, the Minimum inhibitory concentration ([16]; Without NaCl) was 0.5 µM, the Minimum inhibitory concentration ([17]; 0.9% NaCl) was 16 µM and the Minimum inhibitory concentration ([17]; Without NaCl) was 2 µM. The MIC [3, 25] was over 32 µM, the MIC [3, 26] was 1 µM and the Minimum inhibitory concentration ([18]; 0.9% NaCl) was 8 µM. It also gave a Minimum inhibitory concentration ([18]; Without NaCl) of 1 µM, a Minimum inhibitory concentration ([19]; 0.9% NaCl) of over 32 µM and a Minimum inhibitory concentration ([19]; Without NaCl) of 1 µM. For the same molecule, the “concentrations at which cytotoxic activity was shown” value [20] was over 25 µM, the Minimum inhibitory concentration ([21]; 0.9% NaCl) was over 32 µM and the Minimum inhibitory concentration ([21]; Without NaCl) was over 32 µM. The Minimum inhibitory concentration ([6]; With 0.9% NaCl, resistant strain, 26 days with mini-ChBac7.5Nα) was over 256 µM, the Minimum inhibitory concentration ([6]; Without salt, resistant strain, 26 days with mini-ChBac7.5Nα) was 16 µM and the Minimum inhibitory concentration ([7]; With 0.9% NaCl, control strain, 26 days without antimicrobial agent) was 16 µM. For the same molecule, the Minimum inhibitory concentration ([7]; Without salt, control strain, 26 days without antimicrobial agent) was 2 µM, the “MIC of the individual peptide” value [22] was over 256 µM and the Minimum inhibitory concentration ([23]; 0.9% NaCl) was over 32 µM. The Minimum inhibitory concentration ([23]; Without NaCl) was over 32 µM.
